Assay results published in patent US12065436B2, “Cardiac sarcomere inhibitors” (Cytokinetics, Inc., priority 2018, dated 2024).
Where two headings read alike, the source gives them in different places.

Columns and labels:
[1] = system: adult cardiac ventricular rat myocytes; experiment: Adult ventricular myocyte contractility (fractional shortening); format: cell-based; conditions: 5 min, 5 min perfusion, read-out: % FS (% reduction from baseline) ± SEM; for inhibition at 10 µM: 10 μM compound; for inhibition at 5 µM: 5 μM compound
Procedure: Adult male Sprague-Dawley rats were anesthetized and the hearts were quickly excised, rinsed and the ascending aorta was cannulated. Continuous retrograde perfusion was initiated on the hearts at a perfusion pressure of 60 cm H2O. Hearts were first perfused with a nominally Ca^2+-free modified Krebs solution of the following composition: 113 mM NaCl, 4.7 mM KCl, 0.6 mM KH2PO4, 0.6 mM Na2HPO4, 1.2 mM MgSO4, 12 mM NaHCO3, 10 mM KHCO3, 30 mM taurine, 5.5 mM glucose and 10 mM Hepes (all Sigma). This medium is not recirculated and is continually aerated with a 95% O2/5% CO2 mixture. After approximately 3 minutes the heart was perfused with a modified Krebs buffer supplemented with collagenase (Worthington) and 12.5 μM final calcium concentration. The heart was removed from the cannulae after the heart appeared blanched and soft in appearance. The atria and vessels were removed and the ventricles were gently dissected into smaller pieces with forceps. The tissue was homogenized by repeated pipette trituration and the collagenase reaction was stopped by 10% bovine calf serum (BCS), sedimentation and resuspension in perfusion buffer containing 5% BCS and 12.5 uM CaCl2). Myocytes were made calcium tolerant by stepwise addition of a CaCl2) solution to a final concentration of 1.2 mM. Cells were then washed and resuspended in Tyrode's buffer (137 mM NaCl, 3.7 mM KCl, 0.5 mM MgCl, 11 mM glucose, 4 mM Hepes, and 1.2 mM CaCl2), pH 7.4). Cells were kept for 60 min at 37° C. prior to initiating experiments and used within 5 hrs of isolation. […] Additionally, only cells whose basal contractility was between 3 and 8% were used in subsequent experiments with compounds.
Aliquots of myocytes in Tyrode's buffer were placed in perfusion chambers (series 20 RC-27NE; Warner Instruments) complete with heating platforms. Myocytes were allowed to attach, the chambers were heated to 37° C., and the cells were perfused with 37° C. Tyrode's buffer. Myocytes were field stimulated at 1 Hz in with platinum electrodes (20% above threshold). Only cells that had clear striations and were quiescent prior to pacing were used for contractility experiments. To determine basal contractility, myocytes were imaged through a 40× objective. […] Once cell contraction was stable over time, test compounds (0.01-15 μM) were perfused into the chambers on the myocytes for 5 minutes. Contractility of the myocytes and contraction and relaxation velocities were then recorded using edge detection.
Five or more individual myocytes were tested per compound from two or more different myocyte preparations. For each cell, twenty or more contractility transients at basal (defined as 1 min prior to compound infusion) and after compound addition (defined as 5 min after starting compound perfusion), were averaged and compared. These average transients were analyzed using the IonWizard software (IonOptix) to determine changes in diastolic length and fractional shortening. Fractional shortening was calculated as: ((resting length−length at peak contraction) divided by the resting length). The percent change in fractional shortening from baseline was calculated as: ((post-dose fractional shortening/basal fractional shortening)*100). The percent reduction in fractional shortening from baseline was calculated as: (100−percent change in fractional shortening from baseline). Maximum contraction and relaxation velocities (um/sec) was also determined. Results from individual cells are averaged and the SEM calculated.

[2] = molecular target: bovine cardiac myofibrils (full-length cardiac myosin ATPase in the native sarcomere) (Bos taurus (Bovine), UniProt Q9BE39); experiment: Skinned bovine cardiac myofibril ATPase assay (PK/LDH-coupled); format: biochemical; conditions: Ca2+ activating to 75% of maximal rate; for CDMF75 IC15: concentration giving 15% inhibition; for IC50: read-out: CDMF75 IC50
Chain of bovine cardiac myofibrils (full-length cardiac myosin ATPase in the native sarcomere) (Q9BE39 whole entry): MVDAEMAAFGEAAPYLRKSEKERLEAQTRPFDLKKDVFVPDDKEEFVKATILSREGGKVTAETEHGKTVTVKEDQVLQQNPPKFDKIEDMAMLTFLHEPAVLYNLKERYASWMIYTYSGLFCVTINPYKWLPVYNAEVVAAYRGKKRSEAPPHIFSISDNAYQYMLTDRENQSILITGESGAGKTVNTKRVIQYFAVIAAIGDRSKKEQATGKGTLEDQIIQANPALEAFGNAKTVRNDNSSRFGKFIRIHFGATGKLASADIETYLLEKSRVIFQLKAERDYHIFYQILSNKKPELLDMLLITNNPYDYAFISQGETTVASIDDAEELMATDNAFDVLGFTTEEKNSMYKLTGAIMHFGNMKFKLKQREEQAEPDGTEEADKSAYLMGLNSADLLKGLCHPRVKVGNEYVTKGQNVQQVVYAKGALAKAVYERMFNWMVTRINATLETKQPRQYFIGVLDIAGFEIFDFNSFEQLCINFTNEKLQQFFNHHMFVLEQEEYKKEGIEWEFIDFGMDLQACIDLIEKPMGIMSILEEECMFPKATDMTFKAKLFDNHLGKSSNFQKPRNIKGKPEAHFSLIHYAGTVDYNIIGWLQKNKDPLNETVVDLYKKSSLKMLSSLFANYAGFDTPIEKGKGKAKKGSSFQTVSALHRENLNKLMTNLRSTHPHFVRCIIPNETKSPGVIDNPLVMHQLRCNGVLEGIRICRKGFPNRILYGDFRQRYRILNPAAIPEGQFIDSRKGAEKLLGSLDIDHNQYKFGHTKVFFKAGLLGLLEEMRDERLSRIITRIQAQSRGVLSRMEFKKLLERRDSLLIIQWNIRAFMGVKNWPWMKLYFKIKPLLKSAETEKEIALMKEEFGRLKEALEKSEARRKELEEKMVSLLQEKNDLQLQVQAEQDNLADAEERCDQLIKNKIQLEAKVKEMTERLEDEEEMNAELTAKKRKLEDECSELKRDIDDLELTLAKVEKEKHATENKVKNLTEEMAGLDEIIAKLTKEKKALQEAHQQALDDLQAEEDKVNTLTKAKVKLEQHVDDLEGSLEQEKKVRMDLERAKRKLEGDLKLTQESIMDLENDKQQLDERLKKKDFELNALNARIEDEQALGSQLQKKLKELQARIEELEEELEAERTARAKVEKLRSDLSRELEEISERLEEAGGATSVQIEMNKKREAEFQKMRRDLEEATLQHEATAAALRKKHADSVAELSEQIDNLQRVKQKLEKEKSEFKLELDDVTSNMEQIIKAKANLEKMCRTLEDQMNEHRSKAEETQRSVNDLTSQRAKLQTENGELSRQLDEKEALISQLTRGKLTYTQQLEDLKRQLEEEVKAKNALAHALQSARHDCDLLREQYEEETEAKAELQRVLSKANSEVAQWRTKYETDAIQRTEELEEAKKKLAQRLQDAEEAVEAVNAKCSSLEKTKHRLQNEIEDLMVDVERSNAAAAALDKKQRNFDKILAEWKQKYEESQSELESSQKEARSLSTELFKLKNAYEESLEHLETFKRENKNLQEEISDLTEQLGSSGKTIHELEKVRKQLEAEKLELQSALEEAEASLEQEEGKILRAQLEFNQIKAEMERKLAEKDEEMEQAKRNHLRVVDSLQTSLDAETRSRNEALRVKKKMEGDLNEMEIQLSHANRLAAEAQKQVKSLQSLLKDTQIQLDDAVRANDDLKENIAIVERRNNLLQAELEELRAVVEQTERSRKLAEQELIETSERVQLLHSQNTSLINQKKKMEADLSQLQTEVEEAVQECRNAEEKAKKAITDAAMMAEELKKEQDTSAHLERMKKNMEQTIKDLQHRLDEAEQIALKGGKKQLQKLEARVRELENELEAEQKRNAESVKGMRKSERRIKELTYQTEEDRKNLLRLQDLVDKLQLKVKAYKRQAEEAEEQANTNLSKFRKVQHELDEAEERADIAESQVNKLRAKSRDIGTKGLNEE
Chain of bovine cardiac myofibrils (full-length cardiac myosin ATPase in the native sarcomere) (P85100 whole entry partner): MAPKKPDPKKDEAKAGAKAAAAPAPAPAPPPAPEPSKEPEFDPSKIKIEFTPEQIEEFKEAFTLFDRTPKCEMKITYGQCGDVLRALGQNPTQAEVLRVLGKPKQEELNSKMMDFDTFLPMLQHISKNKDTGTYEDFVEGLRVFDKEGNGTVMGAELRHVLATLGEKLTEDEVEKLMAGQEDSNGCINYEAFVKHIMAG
Chain of bovine cardiac myofibrils (full-length cardiac myosin ATPase in the native sarcomere) (Q3SZE5 whole entry partner): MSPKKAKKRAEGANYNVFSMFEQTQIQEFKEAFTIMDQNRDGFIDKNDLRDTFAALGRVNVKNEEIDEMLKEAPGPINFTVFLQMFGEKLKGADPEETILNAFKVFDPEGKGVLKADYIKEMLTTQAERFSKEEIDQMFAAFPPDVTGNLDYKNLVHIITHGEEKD
Procedure, shortened: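 Triton-skinned bovine left-ventricle myofibrils (1 mg/mL) in PM 12 buffer (12 mM PIPES, 2 mM MgCl2, pH 6.8) with 50 μM ATP, 0.6 mM EGTA and CaCl2 set for 50% or 75% activation. Steady-state ATPase inhibition followed by PK/LDH-coupled NADH oxidation at 340 nm.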

[3] = system: rat cardiac contractility (left ventricle fractional shortening); experiment: Echocardiography of acute effect on rat cardiac contractility, continuous IV infusion; format: in vivo, Sprague Dawley rats; conditions: Rattus norvegicus, plasma concentration at which fractional shortening is 50% of pre-dose baseline, estimated, read-out: IC50 (Mean ± S.D.)
Procedure: (§1) Assessment of in vivo cardiac function by echocardiography was performed in male Sprague Dawley rats under isoflurane (1-3%) anesthesia. 2-D M-mode images of the left ventricle were acquired in the parasternal long-axis view before, during, and after administration of compounds by continuous IV infusion or oral gavage. In vivo fractional shortening was determined by M-mode image analysis with the following calculation: ((End diastolic diameter−end systolic diameter)/end diastolic diameter×100). For continuous IV infusion experiments, three pre-dose baseline M-mode images were taken at 1 minute intervals prior to infusion of compound. Compounds were formulated in 50% Propylene Glycol (PG): 16% Captisol: 10% dimethylacetamide (DMA) and delivered via a jugular vein catheter at the rate of 1 mL/kg/h. During infusion, M-mode images were taken at 5 minute intervals. The infusion stopped when fractional shortening reached up to a 60% reduction from baseline. Blood samples were taken to determine the plasma concentration of the compounds. Data was reported as an estimated IC50 value, which is the concentration at which fractional shortening is 50% of the pre-dose baseline contractility.

[4] = system: rat cardiac contractility (left ventricle fractional shortening); experiment: Echocardiography of acute effect on rat cardiac contractility, oral gavage; format: in vivo, Sprague Dawley rats; conditions: for inhibition in vivo at 6 mg/kg / IC50 / inhibition in vivo at 4.5 mg/kg / inhibition in vivo at 10 mg/kg / inhibition in vivo at 2 mg/kg: Rattus norvegicus; for inhibition in vivo at 6 mg/kg / inhibition in vivo at 4.5 mg/kg / inhibition in vivo at 10 mg/kg / inhibition in vivo at 2 mg/kg: oral gavage; for IC50 / IC10: oral dosing, estimated; for IC50: plasma concentration at which fractional shortening is 50% of pre-dose baseline; for IC10: plasma concentration at which
Procedure: as §1
For oral dosing studies, three pre-dose baseline M-Mode images were taken at 1 minute intervals prior to compound administration. Compounds were formulated in a 0.5% hydroxypropyl methylcellulose 2910 (HPMC 2910): 0.1% Tween 80 suspension and delivered as a single dose (5 mL/kg) by oral gavage. Rats were lightly anesthetized for M-Mode echocardiography measurements at select time points over a 24 hour period. Different dose levels were evaluated for each compound. The compound effect on cardiac fractional shortening at the highest dose evaluated is presented in Table D as a percent reduction of baseline fractional shortening (=100%).
Concurrent with echocardiography measurements, blood samples were taken to determine the corresponding compound plasma concentration.

[5] = 1 h, 1-2 h post dose, read-out: FS (% reduction from baseline) at 1-2 h post dose (Mean ± S.D.)
[6] = 4 h post dose, read-out: FS (% reduction from baseline) at 4 h post dose (Mean ± S.D.)

Compound | CDMF75 IC15 [2] [µM] | IC50 [2] [µM] | IC50 [3] [µM] | IC50 [4] [µM] | inhibition at 10 µM [1] [%] | inhibition in vivo at 6 mg/kg [4, 5] [%] | inhibition in vivo at 6 mg/kg [4, 6] [%] | IC10 [4] [µM] | inhibition in vivo at 4.5 mg/kg [4, 5] [%] | inhibition in vivo at 4.5 mg/kg [4, 6] [%] | inhibition in vivo at 10 mg/kg [4, 5] [%] | inhibition in vivo at 10 mg/kg [4, 6] [%] | inhibition at 5 µM [1] [%] | inhibition in vivo at 2 mg/kg [4, 5] [%] | inhibition in vivo at 2 mg/kg [4, 6] [%]
Cc1cc(C(=O)N[C@@H]2CCc3cc(-c4noc(C)n4)ccc32)ccn1 [Compound 31, (R)-2-methyl-N-(5-(5-methyl-1,2,4-oxadiazol-3-yl)-2,3-dihydro-1H-inden-1-yl)isonicotinamide] | 1.0 | 3.6 |  |  | 23.3 ± 18.9 |  |  |  |  |  |  |  |  |  | 
CCc1nc(-c2ccc3c(c2)CC[C@H]3NC(=O)c2cnn(C[C@@H](C)O)c2)no1 [Compound 542, N-[(1R)-5-(5-ethyl-1,2,4-oxadiazol-3-yl)-2,3-dihydro-1H-inden-1-yl]-1-[(2R)-2-hydroxypropyl]-1H-pyrazole-4-carboxamide] | 0.9 | 3.5 |  | 3.5 | 68.4 |  |  | 0.9 | 71 ± 1 | 54 ± 7 |  |  |  |  | 
CCc1nc(-c2ccc3c(c2)CC[C@H]3NC(=O)c2cnn(CCO)c2)no1 [Compound 474, (R)—N-(5-(5-ethyl-1,2,4-oxadiazol-3-yl)-2,3-dihydro-1H-inden-1-yl)-1-(2-hydroxyethyl)-1H-pyrazole-4-carboxamide] | 0.6 | 2.2 |  | 1.4 | 75.2 | 64 ± 8 | 27 ± 6 | 0.2 |  |  |  |  |  |  | 
Cc1ncc(C(=O)N[C@@H]2CCc3cc(-c4noc(C(F)F)n4)ccc32)o1 [Compound 100, (R)—N-(5-(5-(difluoromethyl)-1,2,4-oxadiazol-3-yl)-2,3-dihydro-1H-inden-1-yl)-2-methyloxazole-5-carboxamide] | 0.7 | 3 | 8.1 ± 0.26 | 9.1 |  | 60 ± 4 | 40 ± 3 | 2.3 |  |  |  |  | 54.7 |  | 
CCc1nc(-c2ccc3c(c2)CC[C@H]3NC(=O)c2cnn(C)c2)no1 [Compound 184, (R)—N-(5-(5-ethyl-1,2,4-oxadiazol-3-yl)-2,3-dihydro-1H-inden-1-yl)-1-methyl-1H-pyrazole-4-carboxamide] |  |  | 7.2 ± 0.2 | 7.9 |  |  |  | 0.8 |  |  |  |  | 67.4 | 43 ± 9 | 31 ± 9
Cc1cc(C(=O)NC2CCc3cc(-c4noc(C(F)F)n4)ccc32)ccn1 (stereo not drawn) [Compound 5, N-(5-(5-(difluoromethyl)-1,2,4-oxadiazol-3-yl)-2,3-dihydro-1H-inden-1-yl)-2-methylisonicotinamide] | 1.14 | 5.1 |  |  | 73.2 ± 7.1 |  |  |  |  |  |  |  |  |  | 
CCc1nc(-c2ccc3c(c2)CC[C@H]3NC(=O)c2nnn(C)n2)no1 [Compound 183, (R)—N-(5-(5-ethyl-1,2,4-oxadiazol-3-yl)-2,3-dihydro-1H-inden-1-yl)-2-methyl-2H-tetrazole-5-carboxamide] | 0.3 | 0.9 | 1.2 ± 0.02 | 0.9 |  |  |  | 0.2 |  |  |  |  |  | 42 ± 16 | 15 ± 13

Continued, in another order:

CDMF75 IC15 [2] [µM] | IC50 [2] [µM] | IC50 [3] [µM] | IC50 [4] [µM] | Compound | inhibition at 10 µM [1] [%] | inhibition in vivo at 6 mg/kg [4, 5] [%] | inhibition in vivo at 6 mg/kg [4, 6] [%] | IC10 [4] [µM] | inhibition in vivo at 4.5 mg/kg [4, 5] [%] | inhibition in vivo at 4.5 mg/kg [4, 6] [%] | inhibition in vivo at 10 mg/kg [4, 5] [%] | inhibition in vivo at 10 mg/kg [4, 6] [%] | inhibition at 5 µM [1] [%] | inhibition in vivo at 2 mg/kg [4, 5] [%] | inhibition in vivo at 2 mg/kg [4, 6] [%]
0.3 | 0.9 | 0.7 ± 0.02 |  | Cn1nccc1C(=O)N[C@@H]1COc2cc(-c3noc(C(F)F)n3)ccc21 [Compound 124, (S)—N-(6-(5-(difluoromethyl)-1,2,4-oxadiazol-3-yl)-2,3-dihydrobenzofuran-3-yl)-1-methyl-1H-pyrazole-5-carboxamide] | 84.6 |  |  |  |  |  |  |  |  |  | 
0.5 | 1.3 | 2.4 ± 0.08 | 1.6 | CCc1nc(-c2ccc3c(c2)CC[C@H]3NC(=O)c2ccnc(C)c2)no1 [Compound 387, (R)-N-(5-(5-ethyl-1,2,4-oxadiazol-3-yl)-2,3-dihydro-1H-inden-1-yl)-2-methylisonicotinamide] |  | 59 ± 24 | 50 ± 18 | 0.4 |  |  |  |  |  |  | 
0.3 | 0.8 | 1.7 ± 0.08 | 1.3 | CCc1cc(-c2ccc3c(c2)CC[C@H]3NC(=O)c2nnn(C)n2)no1 [Compound 253, (R)—N-(5-(5-ethylisoxazol-3-yl)-2,3-dihydro-1H-inden-1-yl)-2-methyl-2H-tetrazole-5-carboxamide] |  | 56 ± 9 | 33 ± 7 | 0.3 |  |  |  |  |  |  | 
0.5 | 2 |  | 4.9 | Cn1nnc(C(=O)N[C@@H]2CCc3cc(-c4noc(C(F)F)n4)ccc32)n1 [Compound 82, (R)-N-(5-(5-(difluoromethyl)-1,2,4-oxadiazol-3-yl)-2,3-dihydro-1H-inden-1-yl)-2-methyl-2H-tetrazole-5-carboxamide] | 89.6 |  |  | 1.5 |  |  | 65 ± 6 | 55 ± 8 |  |  | 
0.3 | 1.5 |  |  | Cc1cnoc1C(=O)N[C@@H]1CCc2cc(-c3noc(C(C)C)n3)ccc21 [Compound 116, (R)-N-(5-(5-isopropyl-1,2,4-oxadiazol-3-yl)-2,3-dihydro-1H-inden-1-yl)-4-methylisoxazole-5-carboxamide] | 72.5 |  |  |  |  |  |  |  |  |  | 
